Assays:
[1] = system: bFGF-stimulated formation of new blood vessel in the Matrigel plug; assay: Matrigel plug perfusion in vivo assay; settings: mice, 2, 6 and 30 mg/kg (paclitaxel units), oral gavage
Protocol: A Matrigel® plug perfusion in vivo assay is performed to determine the anti-angiogenic efficacy of the cobalamin-paclitaxel bioconjugate (Cob-Pac) of Example 1. The assay uses Matrigel®, a gelatinous protein mixture secreted by mouse tumor cells (BD Biosciences, San Jose, Calif.), to duplicate tissue environments. Matrigel® is liquid at room temperature, but when injected into the animal, forms a solid plug. If a growth vessel stimulant such as basic fibroblast growth factor (bFGF) is mixed with the Matrigel®, the bFGF stimulates the formation of new blood vessel in the plug, which can be monitored in the animal via fluorescence techniques. In the current study, Matrigel® is injected either alone or with bFGF subcutaneously into mice.

[2] = system: white blood cells; assay: Cobalamin-paclitaxel bioconjugate dose study: white blood cell count; format: in vivo; settings: mice, about 2 mg/kg, 28 days
Protocol: (§1) The effects on counts of viable circulating endothelial cell precursors and white blood cells are measured after 28 days. Corresponding amounts of the cobalamin-paclitaxel bioconjugate, viable circulating endothelial cell precursors (CEPS), and white blood cells are presented in the Table 1:

[3] = Water solubility; format: physicochemical; settings: conjugated to cobalt atom of cobalamin
[4] = system: choroidal neovascularization by laser burns of the eye; assay: Choroidal neovascularization model (fluorescein angiography leakage score); format: in vivo; settings: rats
Protocol: Groups of 8 rats/dosage group or vehicle are neovascularized by laser burns on the eye. Afterwards, the eye is immediately treated with a cobalamin-paclitaxel bioconjugate prepared in accordance with Example 1 at a dose of 1.5 μg/2 μL, 5.0 μg/2 μL, and 15 μg/2 μL (indicated as B.C. in FIG. 1). The treatment regimen also includes a vehicle and Kenacort Retard® (4% triamcinolone acetonide), as a positive control. Each treatment is scored at 7, 14, and 21 days post-treatment by infusing the eye with fluorescein and scoring the leakage using angiography. A score of 0 indicates no leakage while a score of 3 indicates severe leakage.

[5] = system: choroidal neovascularization lesions; assay: Lesion study (flat mount evaluation, choroidal neovascularization); format: in vivo, rats; settings: after 21 days
Protocol: In another study, flat mount evaluation of the eyes can be carried out at the end of the study because angiography may not provide a full evaluation of the effect of the drug. At the end of the study, the eyes are removed, histologically processed and all lesions can be seen (including those that can not be detected by angiography). Such an evaluation can be used as a better measure of the choroidal neovascularization model.
Dosages used are 1.5 μg/2 μL, 5.0 μg/2 μL, and 15 μg/2 μL. The treatments also include a vehicle and Kenacort Retard® (4% triamcinolone acetonide). After 21 days, the eyes are removed, histologically processed, and the lesion size scored in μm^3.

[6] = system: viable circulating endothelial cell precursors (CEPS); assay: Cobalamin-paclitaxel bioconjugate dose study: viable circulating endothelial cell precursors; format: in vivo; settings: mice
Protocol: as §1

SMILES: CC(=O)O[C@H]1C(=O)[C@@]2(C)C([C@H](OC(=O)c3ccccc3)[C@]3(O)C[C@H](OC(=O)[C@H](OC(=O)C[NH+](C)CC[CH2][Co+][N]4/C5=C(/C)C6=N/C(=C\C7=NC(=C(/C)C8=NC(C(C)C4C(CC(N)=O)C5(C)CCC(=O)NCC(C)OP(=O)([O-])OC4C(CO)OC(n5cnc9cc(C)c(C)cc95)C4O)C(C)(CC(N)=O)C8CCC(N)=O)/C(C)(CC(N)=O)C7CCC(N)=O)C(C)(C)C6CCC(N)=O)[C@@H](NC(=O)c4ccccc4)c4ccccc4)C(C)=C1C3(C)C)[C@]1(OC(C)=O)COC1C[C@@H]2O.[Cl-] (stereo partly drawn) [cobalamin-paclitaxel bioconjugate, Cbl-(CH2)3N(CH3)CH2COO-2′-PTX]
- Effect on growth of new blood vessels in Matrigel plug [1]: inhibits the growth of new blood vessels in each instance shown
- Toxicity by white blood cell count [2]: no neutropenia
- solubility [3]: > 100 mg/mL
- Anti-angiogenic result by angiography leakage score (FIG. 1) ([4]; after 7 days, intermediate and high doses (5.0 μg/2 μL and 15 μg/2 μL) to the eye): show anti-angiogenic results
- Anti-angiogenic result by angiography leakage score (FIG. 1) ([4]; after 14 days, high dose (15 μg/2 μL) to the eye): still provides anti-angiogenic benefit
- Number of blood vessel lesions (FIG. 2) ([5]; rats, 1.5, 5.0 and 15 μg/2 μL to the eye): decrease in a concentration dependent manner
- Inhibition of new blood vessel growth (lesion study) ([5]; rats, high and medium concentrations (15 and 5.0 μg/2 μL)): efficacious in inhibiting new blood vessel growth
- Most effective dose (viable CEPS) ([6]; 28-day dose study, dose as paclitaxel): about 2 mg/kg
- Anti-angiogenic effect on viable CEPS ([6]; at each dose (1.5-30 mg/kg), 28 days): marked decrease in viable CEPS
